Test results reported in ChEMBL document CHEMBL1955752, “Synthesis and evaluation of fluorobenzoylated di- and tripeptides as inhibitors of cyclooxygenase-2 (COX-2)” (Bioorg Med Chem, 2012).
pIC50, pKd: −log10 of the molar value. Active and inactive are the calls of the source. The calls are words filed in the database; no cut-off is given here. Residues, ends and D or L forms follow the SMILES beside them.

How the values were obtained:
[1] = target: T1, Prostaglandin G/H synthase 1 (Ovis aries, UniProt P05979); experiment: Inhibition of ovine COX1 by fluorescence assay
T1 sequence (P05979 whole entry): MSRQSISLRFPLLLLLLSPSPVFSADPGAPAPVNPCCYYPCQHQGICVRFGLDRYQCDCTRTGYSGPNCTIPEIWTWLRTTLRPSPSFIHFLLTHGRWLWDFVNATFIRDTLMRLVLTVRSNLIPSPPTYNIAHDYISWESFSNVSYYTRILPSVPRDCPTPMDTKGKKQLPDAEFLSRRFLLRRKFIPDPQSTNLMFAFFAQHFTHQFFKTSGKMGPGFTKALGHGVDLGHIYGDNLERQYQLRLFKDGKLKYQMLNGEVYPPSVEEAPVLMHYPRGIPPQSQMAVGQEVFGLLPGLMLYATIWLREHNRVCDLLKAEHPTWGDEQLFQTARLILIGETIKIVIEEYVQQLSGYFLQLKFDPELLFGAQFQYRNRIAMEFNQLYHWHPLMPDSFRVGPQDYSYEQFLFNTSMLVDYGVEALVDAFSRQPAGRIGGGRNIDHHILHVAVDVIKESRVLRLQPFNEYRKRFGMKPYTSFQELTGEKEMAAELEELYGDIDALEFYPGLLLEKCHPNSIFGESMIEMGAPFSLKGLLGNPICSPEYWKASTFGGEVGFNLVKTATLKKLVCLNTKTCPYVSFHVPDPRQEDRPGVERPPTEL

[2] = target: T2, Prostaglandin G/H synthase 2 (Homo sapiens, UniProt P35354); experiment: Inhibition of human recombinant COX2 by fluorescence assay
T2 sequence (P35354 whole entry): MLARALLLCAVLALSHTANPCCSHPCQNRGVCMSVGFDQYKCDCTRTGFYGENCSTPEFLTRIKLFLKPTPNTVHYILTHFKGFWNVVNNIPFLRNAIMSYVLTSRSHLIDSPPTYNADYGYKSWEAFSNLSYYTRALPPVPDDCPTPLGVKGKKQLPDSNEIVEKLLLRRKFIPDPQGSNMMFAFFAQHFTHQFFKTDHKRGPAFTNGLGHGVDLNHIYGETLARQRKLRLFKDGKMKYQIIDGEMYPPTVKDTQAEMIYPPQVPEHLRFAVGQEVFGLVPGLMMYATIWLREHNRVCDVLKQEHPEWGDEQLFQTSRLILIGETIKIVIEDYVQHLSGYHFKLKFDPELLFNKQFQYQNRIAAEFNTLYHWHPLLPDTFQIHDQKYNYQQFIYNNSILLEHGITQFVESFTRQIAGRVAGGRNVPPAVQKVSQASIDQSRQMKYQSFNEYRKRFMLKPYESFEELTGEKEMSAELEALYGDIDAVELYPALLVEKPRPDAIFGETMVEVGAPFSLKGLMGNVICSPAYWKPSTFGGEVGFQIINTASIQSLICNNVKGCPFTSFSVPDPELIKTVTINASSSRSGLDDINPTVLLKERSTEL

[3] = target: T3, Prostaglandin G/H synthase 1 (Ovis aries) (UniProt P05979); experiment: Inhibition of ovine COX1 at 1 nM to 1 mM by fluorescence assay
T3 sequence (whole entry): T1 sequence (P05979 whole entry)

[4] = target: T2, Prostaglandin G/H synthase 2; experiment: Binding affinity to COX2 by surface plasmon resonance spectroscopy
[5] = target: T2, Prostaglandin G/H synthase 2; experiment: Inhibition of COX2 by ELISA
[6] = target: T4, Prostaglandin G/H synthase 2 (Homo sapiens) (UniProt P35354); experiment: Inhibition of human recombinant COX2 at 1 nM to 1 mM by fluorescence assay
T4 sequence (whole entry): T2 sequence (P35354 whole entry)

Compound | pIC50 [1] | pIC50 [2] | inhibition [3] | pKd [4] | pIC50 [5] | inhibition [6]
O=C(N[C@@H](CS)C(=O)N[C@@H](CO)C(=O)O)c1ccc(F)cc1 | 5.30 | 4.82 |  |  |  | 
O=C(N[C@@H](Cc1c[nH]c2ccccc12)C(=O)N[C@@H](CS)C(=O)N[C@@H](CO)C(=O)O)c1ccc(F)cc1 | 3.85 | 4.07 |  |  |  | 
O=C(N[C@@H](Cc1c[nH]c2ccccc12)C(=O)N[C@@H](CO)C(=O)O)c1ccc(F)cc1 |  | 3.70 | inactive |  |  | 
CSCC[C@H](NC(=O)[C@H](Cc1ccccc1)NC(=O)c1ccc(F)cc1)C(=O)N[C@@H](CCC(=O)O)C(=O)O |  | < 3.00 | inactive |  |  | 
O=C(N[C@@H](Cc1ccc(O)cc1)C(=O)N[C@@H](CO)C(=O)O)c1ccc(F)cc1 |  | 3.85 | inactive |  |  | 
O=C(N[C@@H](Cc1ccc(O)cc1)C(=O)N[C@@H](Cc1c[nH]c2ccccc12)C(=O)N[C@@H](CO)C(=O)O)c1ccc(F)cc1 |  | 3.74 | inactive |  |  | 
CSCC[C@H](NC(=O)[C@H](Cc1c[nH]c2ccccc12)NC(=O)c1ccc(F)cc1)C(=O)N[C@@H](CC(=O)O)C(=O)O |  | 3.35 | inactive |  |  | 
N[C@@H](Cc1c[nH]c2ccccc12)C(=O)N[C@@H](CS)C(=O)N[C@@H](CO)C(=O)O (H-Trp-Cys-Ser-OH) | 5.22 | 4.68 |  | 9.72 | 7.82 | 
O=C(N[C@@H](Cc1ccccc1)C(=O)N[C@@H](CS)C(=O)N[C@@H](CO)C(=O)O)c1ccc(F)cc1 | 4.57 | 4.89 |  |  |  | 
O=C(O)C[C@H](NC(=O)[C@H](Cc1ccc(O)cc1)NC(=O)[C@H](Cc1c[nH]c2ccccc12)NC(=O)c1ccc(F)cc1)C(=O)O |  |  | inactive |  |  | inactive
CSCC[C@H](NC(=O)[C@H](Cc1c[nH]c2ccccc12)NC(=O)c1ccc(F)cc1)C(=O)N[C@@H](CCC(=O)O)C(=O)O |  | 3.46 | inactive |  |  | 
CSCC[C@H](NC(=O)[C@H](Cc1ccc(O)cc1)NC(=O)c1ccc(F)cc1)C(=O)N[C@@H](CC(=O)O)C(=O)O |  | < 3.00 | inactive |  |  | 
N[C@@H](Cc1c[nH]c2ccccc12)C(=O)N[C@@H](Cc1ccc(O)cc1)C(=O)N[C@@H](CC(=O)O)C(=O)O (H-Trp-Tyr-Asp-OH) |  | 3.15 | inactive |  |  | 
CSCC[C@H](NC(=O)[C@H](Cc1ccc(O)cc1)NC(=O)c1ccc(F)cc1)C(=O)N[C@@H](CCC(=O)O)C(=O)O |  | 3.30 | inactive |  |  | 
CSCC[C@H](NC(=O)[C@H](Cc1ccccc1)NC(=O)c1ccc(F)cc1)C(=O)N[C@@H](CC(=O)O)C(=O)O |  | 3.35 | inactive |  |  | 
O=C(O)C[C@H](NC(=O)[C@H](Cc1ccc(O)cc1)NC(=O)c1ccc(F)cc1)C(=O)O |  | 3.96 | inactive |  |  | 
O=C(O)C[C@H](NC(=O)[C@H](CS)NC(=O)c1ccc(F)cc1)C(=O)O | 4.82 | 4.85 |  |  |  | 
